Results: article PMC12349723, “Computationally accelerated identification of P-glycoprotein inhibitors” (PLOS One, 2025)

The compounds below were run on DU145-TXR cells (assay: MTT viability assay, reversal of MDR (re-sensitization to paclitaxel) in P-gp overexpressing DU145-TXR cells). Settings: 15 µM compound + 500 nM PTX (Paclitaxel, Taxol); DU145-TXR; trial 2, sample 4.
Type: cell-based, human
Procedure: The chemotherapeutic sensitive DU145 human prostate cancer cells and the multidrug resistant sub-line, DU145-TXR, were generous gifts from Dr. Evan Keller (University of Michigan, Ann Arbor, MI). The MDR, P-gp overexpressing DU145-TXR cells were maintained under positive selection pressure by supplementing complete medium with 10 nM paclitaxel (Acros Organics, NJ). In addition to the aforementioned cell lines, the chemotherapeutic sensitive A2780 ovarian cancer cells (93112519, Sigma) and the multidrug resistant A2780-ADR (93112520, Sigma) were maintained in complete RPMI media consisting of RPMI-1640 with L-glutamine, 10% fetal bovine serum (FBS; Corning), 100 U/mL penicillin and 100 μg/mL streptomycin in a humidified incubator at 37 °C and 5% CO2. The MDR, P-gp overexpressing A2780-ADR cell line was maintained under positive selection pressure by supplementing complete medium with 100 nM doxorubicin (Fisher Scientific, NJ). The non-cancerous HFL1 (human lung fibroblast) cell line cell line was a generous gift from Dr. Robert Harrod (Southern Methodist University, Dallas, TX) and was maintained in complete F12K media consisting of F12K with 10% fetal bovine serum, 100 U/mL penicillin, and 100 µg/mL streptomycin (Gibco). Flasks and 96 well plates that were used with the non-cancerous line HFL1 were pre-treated with 0.1 mg/ml Collagen Type 1 (Gibco) and rinsed with PBS (Fisher).
Culture of the DU145, DU145-TXR, and HFL1 cell lines was performed as described in [8]. Culture of the A2780 and A2780-ADR cell lines was performed as described in [9]. MTT assays were performed as described in [8] with minor modifications. LC-MS/MS accumulation assays were performed as described in {Nanayakkara, 2018 #173} [9] with some modifications. […] The inhibitor concentration was lowered to 15 µM here, as the goal of the study was to identify compounds that were effective in reversing MDR at low concentrations, and to determine if the expanded virtual-assisted methods improved on our first-draft attempt. Compounds 56–98 were pre-screened using Resazurin cell viability assays: cells were incubated with 15 µM compound with or without 500 nM PTX for 48 hours, after which cell survival was assessed similar to [39]. Data represent the mean of two separate experiments, with n = 3 samples per experiment (n = 6 total) (S4 Table). The top performing compounds from this initial screen were re-tested with MTT viability assays against DU145-TXR cells, as described below.
MTT assays measure the reduction of yellow, water soluble 3-(4,5-dimethylthiazol-2-yl)-2,5-diphenyltetrazolium bromide (MTT) to blue, insoluble formazan crystals by cellular reductase processes in living cells. Cells were trypsinized from monolayers and seeded in complete medium in 96 well plates. Cancerous cell lines (DU145, DU145-TXR, A2780, A2780-ADR) were seeded at 3,000 cells per well in complete RPMI medium. The non-cancerous HFL1 line was seeded at 4,000 cells per well in complete F12K medium, in collagen-treated plates (Collagen Type 1, Gibco). Cells were incubated with experimental compounds for 48 hours at 37 °C and 5% CO2 in a humidified incubator. At 48 hours, MTT was added (20 µL/well of 5 mg/mL MTT in PBS) to each well. After incubation for 4 hours, the media was removed, and the formazan crystals were dissolved in 100 µL DMSO per well. Plates containing the semi-adherent A2780 or A2780-ADR lines were spun at 1400 rpm for 3 minutes prior to aspiration of media, and the addition of DMSO. Plates were shaken for 10 minutes at 500 rpm on an Orbital shaker (LabDoctor from MidSci, St Louis, MO). The absorbance was measured at 570 nm using a Bio-Tek Cytation 5 (Bio-Tek, Winooski, VT). The measured absorbance value was correlated with the number of metabolically active cells in that well, corrected for absorbance of media. […]

Row | Compound | % Survival [%]
1 | CCN1CCN(Cc2c(C(=O)N/N=C3/C(=O)N(C)c4ccccc43)nnn2-c2nonc2N)CC1 [Compound 61, CCN1CCN(Cc2c(nnn2-c2nonc2N)C(=O)N\N=C2\C(=O)N(C)c3ccccc23)CC1] | 44

Same assay, conditions: 15 µM compound with or without 500 nM PTX, 48 h, MTT; re-sensitization = 30% or greater decrease in cell viability

Row | Compound | Re-sensitization of DU145-TXR cells to PTX (reversal of MDR)
2 | CCN1CCN(Cc2c(C(=O)N/N=C3/C(=O)N(C)c4ccccc43)nnn2-c2nonc2N)CC1 [Compound 61, CCN1CCN(Cc2c(nnn2-c2nonc2N)C(=O)N\N=C2\C(=O)N(C)c3ccccc23)CC1] | re-sensitized DU145-TXR cells to PTX

Same assay, conditions: Homo sapiens, 15 µM Compound Alone; DU145-TXR; mean of 8 samples; read-out: % Survival, mean

Row | Compound | viability at 15 µM [%]
3 | CCN1CCN(Cc2c(C(=O)N/N=C3/C(=O)N(C)c4ccccc43)nnn2-c2nonc2N)CC1 [Compound 61, CCN1CCN(Cc2c(nnn2-c2nonc2N)C(=O)N\N=C2\C(=O)N(C)c3ccccc23)CC1] | 99.3

Same assay, conditions: Homo sapiens, 15 µM Compound Alone; DU145-TXR; trial 1, sample 1; read-out: % Survival

Row | Compound | viability at 15 µM [%]
4 | CCN1CCN(Cc2c(C(=O)N/N=C3/C(=O)N(C)c4ccccc43)nnn2-c2nonc2N)CC1 [Compound 61, CCN1CCN(Cc2c(nnn2-c2nonc2N)C(=O)N\N=C2\C(=O)N(C)c3ccccc23)CC1] | 118

Same assay, conditions: Homo sapiens, 15 µM Compound Alone; DU145-TXR; trial 1, sample 2; read-out: % Survival

Row | Compound | viability at 15 µM [%]
5 | CCN1CCN(Cc2c(C(=O)N/N=C3/C(=O)N(C)c4ccccc43)nnn2-c2nonc2N)CC1 [Compound 61, CCN1CCN(Cc2c(nnn2-c2nonc2N)C(=O)N\N=C2\C(=O)N(C)c3ccccc23)CC1] | 117

Same assay, conditions: Homo sapiens, 15 µM Compound Alone; DU145-TXR; trial 1, sample 3; read-out: % Survival

Row | Compound | viability at 15 µM [%]
6 | CCN1CCN(Cc2c(C(=O)N/N=C3/C(=O)N(C)c4ccccc43)nnn2-c2nonc2N)CC1 [Compound 61, CCN1CCN(Cc2c(nnn2-c2nonc2N)C(=O)N\N=C2\C(=O)N(C)c3ccccc23)CC1] | 119

Same assay, conditions: Homo sapiens, 15 µM Compound Alone; DU145-TXR; trial 1, sample 4; read-out: % Survival

Row | Compound | viability at 15 µM [%]
7 | CCN1CCN(Cc2c(C(=O)N/N=C3/C(=O)N(C)c4ccccc43)nnn2-c2nonc2N)CC1 [Compound 61, CCN1CCN(Cc2c(nnn2-c2nonc2N)C(=O)N\N=C2\C(=O)N(C)c3ccccc23)CC1] | 123

Same assay, conditions: Homo sapiens, 15 µM Compound Alone; DU145-TXR; trial 2, sample 1; read-out: % Survival

Row | Compound | viability at 15 µM [%]
8 | CCN1CCN(Cc2c(C(=O)N/N=C3/C(=O)N(C)c4ccccc43)nnn2-c2nonc2N)CC1 [Compound 61, CCN1CCN(Cc2c(nnn2-c2nonc2N)C(=O)N\N=C2\C(=O)N(C)c3ccccc23)CC1] | 93

Same assay, conditions: Homo sapiens, 15 µM Compound Alone; DU145-TXR; trial 2, sample 2; read-out: % Survival

Row | Compound | viability at 15 µM [%]
9 | CCN1CCN(Cc2c(C(=O)N/N=C3/C(=O)N(C)c4ccccc43)nnn2-c2nonc2N)CC1 [Compound 61, CCN1CCN(Cc2c(nnn2-c2nonc2N)C(=O)N\N=C2\C(=O)N(C)c3ccccc23)CC1] | 75

Same assay, conditions: Homo sapiens, 15 µM Compound Alone; DU145-TXR; trial 2, sample 3; read-out: % Survival

Row | Compound | viability at 15 µM [%]
10 | CCN1CCN(Cc2c(C(=O)N/N=C3/C(=O)N(C)c4ccccc43)nnn2-c2nonc2N)CC1 [Compound 61, CCN1CCN(Cc2c(nnn2-c2nonc2N)C(=O)N\N=C2\C(=O)N(C)c3ccccc23)CC1] | 77

Same assay, conditions: Homo sapiens, 15 µM Compound Alone; DU145-TXR; trial 2, sample 4; read-out: % Survival

Row | Compound | viability at 15 µM [%]
11 | CCN1CCN(Cc2c(C(=O)N/N=C3/C(=O)N(C)c4ccccc43)nnn2-c2nonc2N)CC1 [Compound 61, CCN1CCN(Cc2c(nnn2-c2nonc2N)C(=O)N\N=C2\C(=O)N(C)c3ccccc23)CC1] | 72
